Test results from publication PMC9774238, “In Vitro Antifungal Activity of Chimeric Peptides Derived from Bovine Lactoferricin and Buforin II against Cryptococcus neoformans var. grubii” (Antibiotics, 2022).
≈ marks a conversion by molar mass, not a printed value. Where two headings read alike, the source gives them in different places. Non-standard residues stand in square brackets, D forms with d. Residues, ends and D or L forms follow the SMILES beside them. No end group written: not given here. Ahx = NCCCCCC(=O)O

Columns and labels:
[1] = test system: C. neoformans var. grubii H99; experiment: microbe, parasite or virus in culture; format: cell-based, Cryptococcus neoformans var. grubii
Method: (§1) The in vitro susceptibility of chimeric, precursor peptides and FLC was evaluated by determining the minimal inhibitory concentration (MIC) on the basis of the broth microdilution method, according to document M27-A3 of the Clinical Laboratory Standards Institute (CLSI). It was diluted in RPMI-1640 medium (Sigma-Aldrich) at concentrations ranging from 1.6 to 100 μg/mL. The initial suspension (0.5 McFarland) was mixed into saline solution. Subsequently, a 1:50 dilution in saline solution and a 1:20 dilution in RPMI-1640 were tested (0.5–2.5 × 10^3 cells/mL). The negative control was the medium only without inoculum, and the positive control was the medium plus inoculum. The incubation time was 72 h at 30 °C at 110 rpm. The MIC values were determined by measuring the absorbance at 595 nm in a microplate reader and were defined as the lowest concentration of peptides capable of inhibiting growth equal to or higher than 50% in relation to the positive control. The MIC for fluconazole (FLC; 0.125–64 μg/mL; Pfizer, Brazil) was also determined according to M27-A3. The lowest concentration of the antifungal agent that was able to inhibit growth by 50% with respect to the positive control was considered the MIC.

[2] = test system: C. neoformans var. grubii clinical isolate 2643; experiment: microbe, parasite or virus in culture; format: cell-based, Cryptococcus neoformans var. grubii
Method: as §1

[3] = test system: C. neoformans var. grubii clinical isolate 2807; experiment: microbe, parasite or virus in culture; format: cell-based, Cryptococcus neoformans var. grubii
Method: as §1

[4] = test system: C. neoformans var. grubii clinical isolate 3279; experiment: microbe, parasite or virus in culture; format: cell-based, Cryptococcus neoformans var. grubii
Method: as §1

[5] = test system: C. neoformans var. grubii H99; format: cell-based, Cryptococcus neoformans var. grubii; settings: var. grubii H99, 74 h
Method: (§2) The minimal fungicidal concentration (MFC) was evaluated after the yeast’s exposure to the chimeras (1.6 to 100 μg/mL), as described above. […] The MFC was defined as the lowest peptide concentration at which ≤1 colony was visible on the agar plate.

[6] = test system: C. neoformans var. grubii clinical isolate 2807; format: cell-based, Cryptococcus neoformans var. grubii; settings: var. grubii clinical isolate 2807, 74 h
Method: as §2

[7] = test system: C. neoformans 2807 clinical isolate; experiment: microbe, parasite or virus in culture; format: cell-based, Cryptococcus neoformans var. grubii; settings: 72 h; for MICa (MIC of the chimeric peptide alone): 2807 clinical isolate
Method: (§3) The combined effect of FLC with the chimeric peptides was evaluated for the reference strain and one clinical isolate. The amounts of 50 µL of the chimeric peptide and 50 µL of antifungal (FLC) were added to the plates at final concentrations of: 2xMIC, MIC, 1/2xMIC, 1/4xMIC, 1/6xMIC, and 1/8xMIC. A yeast cell suspension was added at 0.5–2.5 × 10^3 cells/mL in 96-well plates. It was incubated for 72 h with shaking at 110 rpm and at 30 °C.
(§4) The effect of the combination of the two drugs was determined by calculating the fractional inhibitory concentration index (∑FIC), which was calculated as follows: ∑FIC = (MICcombined/MICalone) FLC + (MICcombined/MICalone) peptide.
(§5) FIC values ≤0.5 was considered as synergistic effect, 0.5 < FIC < 1 an additive effect, 1 < FIC < 4 indifference, and FIC ≥ 4 an antagonistic effect.

C. neoformans H99 = experiment: microbe, parasite or virus in culture; format: cell-based, Cryptococcus neoformans var. grubii; settings: for MICa (MIC of the chimeric peptide alone): H99, 72 h
Method: as §3, §4, §5

[8] = test system: L929 murine fibroblast cells; format: cell-based, mouse; settings: 2 h
Method: The cell line used for this approach was the mouse fibroblast L929. The cells were washed with saline solution, trypsinized, and incubated for 5 min at 37 °C with a 5% CO2 atmosphere. The fibroblast cell suspension was prepared at a concentration of 1 × 10^6 cells in 7 mL of RPMI medium supplemented with fetal bovine serum (the number of cells needed for one plate) and dispensed into 96-well plates. Then, 70 µL of cells was added per well and incubated overnight at 37 °C and 5% CO2. Dilutions of each peptide chimera (3.125–200 µg/mL) were formulated, and 50 µL of each were added to the plate in quadruplicate and incubated for 2 h at 37 °C and 5% CO2. Control wells consisted of untreated cell cultures. In addition, 10 µL of MTT was added to each of the wells, and the plate was incubated for 4 h at 37 °C with a 5% CO2 atmosphere. Following that, the total volume of each well was withdrawn, 100 µL of DMSO was added, and it was incubated for 40 min at 37 °C with 5% CO2.
Plates were read with an iMark™ microplate reader (Bio-rad, Hercules, CA, USA) measuring the absorbance at 595 nm. Wells of untreated fibroblast cells were considered to be the negative control.

[9] = test system: C. neoformans var. grubii strains; format: cell-based, Cryptococcus neoformans var. grubii; settings: 72 h
Method: as §1

[10] = test system: C. neoformans var. grubii strains; format: cell-based, Cryptococcus neoformans var. grubii; settings: 74 h
Method: as §2

[11] = test system: C. neoformans var. grubii mutant CNAG_00730; experiment: MIC, broth microdilution (CLSI M27-A3); format: cell-based, Cryptococcus neoformans var. grubii; settings: Cryptococcus neoformans, 72 h
Method: as §1

[12] = test system: C. neoformans var. grubii mutant CNAG_01580; experiment: MIC, broth microdilution (CLSI M27-A3); format: cell-based, Cryptococcus neoformans var. grubii; settings: Cryptococcus neoformans, 72 h
Method: as §1

[13] = test system: C. neoformans var. grubii mutant CNAG_02050; experiment: MIC, broth microdilution (CLSI M27-A3); format: cell-based, Cryptococcus neoformans var. grubii; settings: Cryptococcus neoformans, 72 h
Method: as §1

[14] = test system: C. neoformans var. grubii mutant CNAG_02915; experiment: MIC, broth microdilution (CLSI M27-A3); format: cell-based, Cryptococcus neoformans var. grubii; settings: Cryptococcus neoformans, 72 h
Method: as §1

[15] = test system: C. neoformans var. grubii mutant CNAG_04693; experiment: MIC, broth microdilution (CLSI M27-A3); format: cell-based, Cryptococcus neoformans var. grubii; settings: Cryptococcus neoformans, 72 h
Method: as §1

[16] = test system: C. neoformans var. grubii mutant CNAG_04804; experiment: MIC, broth microdilution (CLSI M27-A3); format: cell-based, Cryptococcus neoformans var. grubii; settings: Cryptococcus neoformans, 72 h
Method: as §1

[17] = test system: C. neoformans var. grubii mutant CNAG_05150; experiment: MIC, broth microdilution (CLSI M27-A3); format: cell-based, Cryptococcus neoformans var. grubii; settings: Cryptococcus neoformans, 72 h
Method: as §1

[18] = test system: C. neoformans var. grubii mutant CNAG_06925; experiment: MIC, broth microdilution (CLSI M27-A3); format: cell-based, Cryptococcus neoformans var. grubii; settings: Cryptococcus neoformans, 72 h
Method: as §1

[19] = test system: C. neoformans var. grubii H99; experiment: Fluorescent staining for yeast viability (LIVE/DEAD, FUN1 and calcofluor white); format: cell-based, Cryptococcus neoformans var. grubii; settings: 72 h
Method: Since the antifungal activity of the two chimeras was similar, it was decided to evaluate cell viability in the reference strain using one of the two chimeras by means of confocal microscopy. For this reason, the C6 chimera was evaluated in the H99 strain by staining with FUN1 and calcofluor white.
A commercial LIVE/DEAD™ yeast viability kit (Invitrogen, US) was used to analyze yeast viability after treatment with one of the chimeric peptides and FLC for 72 h at concentrations of 3.125, 6.25, 12.5, and 25 μg/mL and 4 and 8 μg/mL, respectively. In the dead control, the yeasts were treated with 5% hypochlorite for 10 min. Untreated yeast cells were used as a live control. Yeast cells were suspended in phosphate buffered saline (PBS). FUN-1 cell stains (10 μM) and calcofluor white (25 μM) were added to the yeast cell suspensions. After incubation in the dark at 30 °C for 30 min, the stained yeast was analyzed under a fluorescence microscope (Olympus FV1000) using filters set to excitation at approximately 488, 532, and 405 nm at 60× magnification. Fungal cell viability was determined by means of fluorescence analysis in at least 10 fields. Staining and interpretation of fluorescence were performed according to the manufacturer’s instructions.

[20] = test system: mutants of C. neoformans var. grubii; experiment: MIC, mutants (summary statements); format: cell-based, Cryptococcus neoformans var. grubii; settings: all mutants
Method: as §1

[21] = test system: normal human T lymphocytes, fibroblasts, and endothelial cells; settings: LfcinB at 200 μg/mL; cited from earlier work
Description: One of the main concerns about the use of antimicrobial peptides in systemic treatments is their toxicity.

[22] = var. grubii clinical isolate 2807, 72 h

RLLRRLLR [BFII (32–35)Pal]
MIC ([1]; var. grubii H99, 72 h): > 46 µM | MIC ([2]; var. grubii clinical isolate 2643, 72 h): > 46 µM | MIC [3, 22]: > 46 µM | MIC ([4]; var. grubii clinical isolate 3279, 72 h): > 46 µM | MFC [5]: > 46 µM | MFC [6]: > 46 µM

KKWQWK [[K]-LfcinB (20–25)]
MIC ([1]; var. grubii H99, 72 h): 111 µM | MIC [3, 22]: 111 µM | MFC [5]: 111 µM | MFC [6]: 111 µM

CC(C)C[C@H](NC(=O)[C@H](CC(C)C)NC(=O)[C@H](CCCCN)NC(=O)[C@H](CCCCN)NC(=O)[C@H](CC(C)C)NC(=O)[C@H](CC(C)C)NC(=O)[C@H](CCCCN)NC(=O)CCCCCNC(=O)[C@H](CCCNC(=N)N)NC(=O)[C@H](Cc1c[nH]c2ccccc12)NC(=O)[C@H](CCC(N)=O)NC(=O)[C@H](Cc1c[nH]c2ccccc12)NC(=O)[C@H](CCCNC(=N)N)NC(=O)[C@@H](N)CCCNC(=N)N)C(=O)N[C@@H](CCCCN)C(N)=O [Chimera C5] (H-RRWQWR[Ahx]KLLKKLLK-NH2)
MICa (MIC of the chimeric peptide alone) [7]: 12.5 µg/mL | MICa (MIC of the chimeric peptide alone) (C. neoformans H99): 12.5 µg/mL | IC50 (fibroblast viability) [8]: 93.35 µg/mL (≈ 45.2 µM) | MIC [9]: 12.5 µg/mL (≈ 6.05 µM) | MFC [10]: 12.5 µg/mL (≈ 6.05 µM)

KLLKKLLK [[K]-BFII (32–35)Pal]
MIC ([1]; var. grubii H99, 72 h): 114 µM | MIC [3, 22]: 114 µM | MFC [5]: 114 µM | MFC [6]: 114 µM

OC(Cn1cncn1)(Cn1cncn1)c1ccc(F)cc1F [FLC, fluconazole]
MIC ([1]; Cryptococcus neoformans, H99 reference strain, broth microdilution RPMI-1640, 72 h, 30 °C, ≥50% inhibition (A595), read-out: MIC): 4 µg/mL | susceptibility of the strain to FLC ([1]; H99 strain): sensitive | MIC ([2]; Cryptococcus neoformans, clinical isolate 2643, broth microdilution RPMI-1640, 72 h, 30 °C, ≥50% inhibition, read-out: MIC): 8 µg/mL | MIC ([3]; Cryptococcus neoformans, clinical isolate 2807, broth microdilution RPMI-1640, 72 h, 30 °C, ≥50% inhibition, read-out: MIC): 16 µg/mL | MIC ([4]; Cryptococcus neoformans, clinical isolate 3279, broth microdilution RPMI-1640, 72 h, 30 °C, ≥50% inhibition, read-out: MIC): 16 µg/mL | MIC [11]: 0.75 µg/mL (≈ 2.45 µM) | MIC [12]: 0.25 µg/mL (≈ 0.816 µM) | MIC [13]: 1 µg/mL (≈ 3.27 µM) | MIC [14]: 1.5 µg/mL (≈ 4.9 µM) | MIC [15]: 1 µg/mL (≈ 3.27 µM) | MIC [16]: 1 µg/mL (≈ 3.27 µM) | MIC [17]: 2 µg/mL (≈ 6.53 µM) | MIC [18]: 1 µg/mL (≈ 3.27 µM) | cell population versus live control ([19]; fluconazole 4 μg/mL (MIC)): a decrease in the cell population was observed | cell decrease ([19]; fluconazole 8 μg/mL): > 80% | MIC ([7]; Cryptococcus neoformans, clinical isolate 2807, checkerboard, 30 °C, 110 rpm, read-out: MICb (MIC of FLC alone)): 16 µg/mL | MIC (C. neoformans H99; Cryptococcus neoformans, H99, checkerboard, 72 h, 30 °C, 110 rpm, read-out: MICb (MIC of FLC alone)): 4 µg/mL | susceptibility of the strains to FLC [20]: sensitive

LfcinB: bovine lactoferricin, antimicrobial peptide (FKCRRWQWRMKKLGAPSITCVRRAF; ends and bridges not checked; cysteine pairing not given here; UniProt P24627 36-60, looked up)
toxicity for normal human cell cultures [21]: not toxic

CC(C)C[C@H](NC(=O)[C@H](CC(C)C)NC(=O)[C@H](CCCNC(=N)N)NC(=O)[C@H](CCCNC(=N)N)NC(=O)[C@H](CC(C)C)NC(=O)[C@H](CC(C)C)NC(=O)[C@H](CCCNC(=N)N)NC(=O)CCCCCNC(=O)[C@H](CCCCN)NC(=O)[C@H](Cc1c[nH]c2ccccc12)NC(=O)[C@H](CCC(N)=O)NC(=O)[C@H](Cc1c[nH]c2ccccc12)NC(=O)[C@H](CCCCN)NC(=O)[C@@H](N)CCCCN)C(=O)N[C@@H](CCCNC(=N)N)C(N)=O [Chimera C6] (H-KKWQWK[Ahx]RLLRRLLR-NH2)
MICa (MIC of the chimeric peptide alone) [7]: 6.25 µg/mL | MICa (MIC of the chimeric peptide alone) (C. neoformans H99): 6.25 µg/mL | IC50 (fibroblast viability) [8]: 67.44 µg/mL (≈ 32.2 µM) | MIC [9]: 6.25 µg/mL (≈ 2.99 µM) | MFC [10]: 6.25 µg/mL (≈ 2.99 µM)
